# Reference: patent US5124313A, “Methods of improved skin care and the treatment of dermatological conditions” (priority 1989, dated 1992)
# Like-named read-outs stand apart in the source and are kept apart here.
# Legend:
# [1] = cited from earlier work; for allergic responses / skin irritation / sensitization: human, in vivo
# [2] = In vitro water/solvent partitioning (dispersion, centrifugation, HPLC of supernatant); type: physicochemical
# Protocol: The method s for determining in vitro water/solvent partitioning was as follows:
# Individual dispersions of the above were prepared in the following solvents:
# (1) Distilled water at 23° C.
# (2) Distilled water at 70° C.
# The dispersions were made under nitrogen and protected from light, using high shear agitation to yield particles of less than 0.5 u in diameter. The concentrations in each case were calculated to yield 4,000 i.u. per ml. The dispersions were centrifuged until clear supernatant liquids were obtained. Aliquouts of 50 uL of the clear supernatants were injected into the HPLC columns and the resulting peaks were evaluated, using a methanol solution of retinyl palmitate as the standard.
# [3] = present practices of use and concentration; cited from earlier work
# [4] = human, in vivo
# Protocol: Ten subjects, 4 females and 6 males, ranging in age from 18 to 27 years participated with informed consent.
# The products were applied to alternate inner wrist surfaces, in areas of 2.5×1.0 cm, rubbed into the skin for aproximately 5-10 seconds, using a gloved finger as an applicator and applying equal pressure in all applications. […] Mixing, applications and assays were performed in subdued light in order to decrease photodecomposition. The application sites were loosely covered with protective aluminum foil. After 30 minutes of exposure, the surface products were removed by rinsing with alcohol followed by air-drying. A strip of 3M Tape was then applied to the application site in a slightly larger rectangle than the site and removed. This stripping process was repeated for a total of 15 times and was designed to removed the entire stratum corneum. The combined strips were eluted with methanol and the eluates were assayed for RP by HPLC, using a Lichrosorb Si 60/5 micron column, after separation and saponification according to a modified USP XXI procedure.
# [5] = topical; cited from earlier work
# fetuses [6] = settings: rat; topical administration to the mother; cited from earlier work
# fetuses [7] = settings: rabbit; topical administration to the mother; cited from earlier work
# [8] = n-Hexane at 250° C. (so in the source), dispersion calculated to 4,000 i.u. per ml
# [9] = n-Hexane, dispersion calculated to 4,000 i.u. per ml
compound,measurement,setting,value
"CC1=C(/C=C/C(C)=C/C=C/C(C)=C\C(=O)O)C(C)(C)CCC1 [Accutane®, 13-cis-Retinoic acid]",birth defects,[1]; children of women treated during pregnancy,extensive birth defects in children of women treated with the drug during pregnancy
same,allergic responses / skin irritation / sensitization,[1],Allergic responses have also been reported
"CCCCCCCCCCCCCCCC(=O)OC/C=C(C)/C=C/C=C(C)/C=C/C1=C(C)CCCC1(C)C [RP, retinyl palmitate]",solubility in n-hexane (in words),[2],good solubility
same,solubility in water (in words),[2],no solubility in water
same,"Absorption, both HPLC peaks (or absence of peak)","[2]; Water at 23° C., dispersion calculated to 4,000 i.u. per ml",No peak
same,"Absorption, both HPLC peaks (or absence of peak)","[2]; Water at 70° C., dispersion calculated to 4,000 i.u. per ml",No Peak
same,"Absorption, both HPLC peaks (or absence of peak)",[2]; [8],0.10
same,HPLC Peak #2,[2]; [8],0.070
same,Absorption equivalent,[2]; [9],"~4,000 i.u."
same,HPLC Peak #1,[2]; [9],0.031
same,partitioning / migration into water and hexane (in words),[2]; water and hexane,no migration into water with some fractionation into hexane
same,safety as cosmetic ingredient,[3],safe as cosmetic ingredients
same,"% Retinyl Palmitate Absorbed, average +/- Std. Deviation",[4],0.84 +/- 0.21%
"CC1=C(/C=C/C(C)=C/C=C/C(C)=C/C(=O)O)C(C)(C)CCC1 [Tretinoin, All-trans-retinoic acid]",treatment of photoaged skin,[5],effective for the treatment of photoaged skin
same,fetal abnormalities,fetuses [6],abnormalities in rat and rabbit fetuses
same,fetal abnormalities,fetuses [7],abnormalities in rat and rabbit fetuses
same,allergic responses / skin irritation / sensitization,[1],"severe skin irritation, sensitization and allergic responses"
"CC(C=CC1=C(C)CCCC1(C)C)=CC=CC(C)=CCO [retinol, 3,7-dimethyl-9-(2,6,6-trimethyl-1-cyclohexen-1-yl)-2,4,6,8-nonatetraen-1-ol]",safety as cosmetic ingredient,[3],safe as cosmetic ingredients
